ChEMBL document CHEMBL1126499, “Inhibition of 2,3-oxidosqualene cyclase by N-alkylpiperidines” (Bioorg Med Chem Lett, 1993)

Tests used:
HepG2 = experiment: Inhibitory concentration against cholesterol biosynthesis in HepG2 cells.; conditions: Homo sapiens
Lanosterol synthase = biological target: T1, Lanosterol synthase (Rattus norvegicus, UniProt P48450); experiment: Inhibitory concentration against purified rat liver Oxidosqualene cyclase (OSC); NI means no inhibition
T1 sequence (P48450 whole entry): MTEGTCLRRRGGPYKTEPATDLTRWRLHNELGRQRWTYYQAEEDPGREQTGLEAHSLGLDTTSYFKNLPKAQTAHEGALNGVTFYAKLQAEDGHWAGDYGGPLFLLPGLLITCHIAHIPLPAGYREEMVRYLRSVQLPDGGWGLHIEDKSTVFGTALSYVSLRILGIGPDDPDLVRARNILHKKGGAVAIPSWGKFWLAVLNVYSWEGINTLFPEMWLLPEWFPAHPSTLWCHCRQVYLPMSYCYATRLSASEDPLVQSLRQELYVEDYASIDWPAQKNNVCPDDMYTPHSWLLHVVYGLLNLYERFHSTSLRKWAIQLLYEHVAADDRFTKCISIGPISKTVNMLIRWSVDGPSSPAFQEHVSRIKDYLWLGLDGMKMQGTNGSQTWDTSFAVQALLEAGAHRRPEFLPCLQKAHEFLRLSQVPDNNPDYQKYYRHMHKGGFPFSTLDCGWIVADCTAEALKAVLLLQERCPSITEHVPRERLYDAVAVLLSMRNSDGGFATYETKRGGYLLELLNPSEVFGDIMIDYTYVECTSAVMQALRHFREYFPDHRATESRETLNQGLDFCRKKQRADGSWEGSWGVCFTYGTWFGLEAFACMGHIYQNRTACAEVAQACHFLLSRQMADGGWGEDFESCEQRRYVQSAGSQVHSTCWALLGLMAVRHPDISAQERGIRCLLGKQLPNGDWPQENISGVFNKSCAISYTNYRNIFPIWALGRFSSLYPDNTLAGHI

**Q.** How did the IC50 (HepG2) turn out when `CCCCCCCCCCCCN1CCC(C(C)CO)CC1` (stereo not given) was run?
**A.** 0.04 µM

**Q.** `CCCCCCCCCCCC(=O)N1CC[C@H]2[C@H](C)[C@@H](O)CC[C@]2(C)C1` was tested. Which IC50 (HepG2) did it give?
**A.** 0.0007 µM

**Q.** How did the IC50 (HepG2) turn out when `CC(C)CCCC(C)CCCC(C)N1CCCCC1` (stereo not given) was run?
**A.** 30 µM

**Q.** Which IC50 (Lanosterol synthase) does the source give for `C[C@@H]1[C@@H](O)CC[C@]2(C)CN(Cc3ccccc3)CC[C@@H]12` here?
**A.** Not Active

**Q.** Which IC50 (HepG2) does the source give for `CCCCCCCCCCCCC(=O)N1CCC(C(C)CO)CC1` (stereo not given) here?
**A.** 0.012 µM
